This note sets out measurements from US9926281B2 (priority 2014, dated 2018).

One assay addresses human ADAMTS-5 (Homo sapiens (Human), UniProt Q9UNA0). As to conditions: read-out: hADAMTS-5 potency IC50.
Another assay deals with rnADAMTS-5 (1-564-6H) (Rattus norvegicus, UniProt Q6TY19). As to conditions: read-out: Rat ADAMTS-5 potency IC50.
The target of a further assay is human MMP13 (Homo sapiens (Human), UniProt P45452). As to conditions: read-out: hMMP-13 potency IC50.
The target in the next assay is human TACE (Homo sapiens (Human), UniProt P78536). As to conditions: read-out: TACE potency IC50.
Chain of human TACE (P78536 whole entry, looked up, change not shown): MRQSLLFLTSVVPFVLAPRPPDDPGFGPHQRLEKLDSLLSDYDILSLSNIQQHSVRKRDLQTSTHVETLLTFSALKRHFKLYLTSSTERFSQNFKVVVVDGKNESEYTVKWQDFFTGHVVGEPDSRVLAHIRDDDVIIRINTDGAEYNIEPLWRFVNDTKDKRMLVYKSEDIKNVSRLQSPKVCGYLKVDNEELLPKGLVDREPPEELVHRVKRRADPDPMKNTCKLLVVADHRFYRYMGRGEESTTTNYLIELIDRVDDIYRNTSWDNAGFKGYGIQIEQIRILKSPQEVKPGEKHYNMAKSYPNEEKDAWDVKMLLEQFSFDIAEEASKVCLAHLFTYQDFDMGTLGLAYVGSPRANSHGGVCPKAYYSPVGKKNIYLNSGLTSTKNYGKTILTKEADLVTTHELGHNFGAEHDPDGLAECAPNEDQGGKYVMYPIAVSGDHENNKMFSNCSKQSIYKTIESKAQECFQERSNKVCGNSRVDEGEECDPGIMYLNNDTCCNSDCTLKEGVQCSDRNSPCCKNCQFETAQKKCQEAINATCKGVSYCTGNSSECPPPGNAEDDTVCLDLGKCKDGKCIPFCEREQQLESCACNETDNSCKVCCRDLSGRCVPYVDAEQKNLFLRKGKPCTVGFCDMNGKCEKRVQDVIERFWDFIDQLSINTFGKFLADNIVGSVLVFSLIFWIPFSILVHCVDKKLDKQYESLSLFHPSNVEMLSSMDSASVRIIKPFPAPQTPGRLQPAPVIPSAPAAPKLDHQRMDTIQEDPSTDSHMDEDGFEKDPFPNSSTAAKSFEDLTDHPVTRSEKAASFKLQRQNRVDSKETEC

Molecules are shown by their SMILES.

Chain of human ADAMTS-5 (Q9UNA0 262-930): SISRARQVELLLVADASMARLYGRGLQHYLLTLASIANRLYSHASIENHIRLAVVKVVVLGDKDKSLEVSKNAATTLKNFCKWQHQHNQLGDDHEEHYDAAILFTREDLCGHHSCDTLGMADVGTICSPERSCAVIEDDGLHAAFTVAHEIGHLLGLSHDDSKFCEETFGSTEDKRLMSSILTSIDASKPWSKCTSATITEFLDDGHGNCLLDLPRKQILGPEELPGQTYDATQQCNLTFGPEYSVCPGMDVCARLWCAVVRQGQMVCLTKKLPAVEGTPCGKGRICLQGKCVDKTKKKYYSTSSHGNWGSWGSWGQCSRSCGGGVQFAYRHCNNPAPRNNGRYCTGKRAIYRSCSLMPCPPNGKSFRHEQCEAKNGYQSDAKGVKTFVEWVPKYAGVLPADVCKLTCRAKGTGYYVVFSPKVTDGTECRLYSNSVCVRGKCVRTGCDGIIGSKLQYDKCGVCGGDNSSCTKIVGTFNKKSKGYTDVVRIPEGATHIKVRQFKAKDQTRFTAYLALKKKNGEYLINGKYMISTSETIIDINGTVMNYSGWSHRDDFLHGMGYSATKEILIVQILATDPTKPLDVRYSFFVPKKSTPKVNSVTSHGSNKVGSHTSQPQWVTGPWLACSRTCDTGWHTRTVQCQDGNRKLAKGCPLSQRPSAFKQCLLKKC
Description for human MMP13: The reaction is initiated by adding to the assay plate 520 MMP-fret substrate XV (10 μL, 4 μM) in the same buffer.

What is called IC50 is the concentration at which inhibition is half-maximal. Take `O=C1NC(=O)C(CCC(=O)N2CCN(c3ccccc3)CC2)(c2ccccc2)N1` (stereo not shown) [compound 4, 5-[3-oxo-3-(4-phenylpiperazin-1-yl)propyl]-5-phenyl-imidazolidine-2,4-dione]: the half-maximal inhibitory concentration (IC50) is 114 nM on human ADAMTS-5, 66 nM on rnADAMTS-5 (1-564-6H), 2520 nM on human MMP13 and over 5500 nM at human TACE.

Consider `Cc1ccccc1N1CCN(C(=O)CCC2(c3ccccc3)NC(=O)NC2=O)CC1` (stereo not shown) [compound 7, 5-[3-[4-(o-tolyl)piperazin-1-yl]-3-oxo-propyl]-5-phenyl-imidazolidine-2,4-dione], for which the IC50 at human ADAMTS-5 was 272 nM; at rnADAMTS-5 (1-564-6H) it was 272 nM; on human MMP13, over 20000 nM; at human TACE, over 2930 nM.

As to `Cc1cccc(N2CCN(C(=O)CCC3(c4ccccc4)NC(=O)NC3=O)CC2)c1C` (stereo not shown) [compound 8, 5-[3-[4-(2,3-dimethylphenyl)piperazin-1-yl]-3-oxo-propyl]-5-phenyl-imidazolidine-2,4-dione], the half-inhibitory concentration (IC50) at human ADAMTS-5 was 142 nM; at rnADAMTS-5 (1-564-6H), 157 nM; at human MMP13, over 20000 nM; on human TACE, over 3220 nM.

Consider `O=C1NC(=O)C(CCC(=O)N2CCN(c3ccc4ccccc4c3)CC2)(c2ccccc2)N1` (stereo not shown) [compound 9, 5-[3-[4-(2-naphthyl)piperazin-1-yl]-3-oxo-propyl]-5-phenyl-imidazolidine-2,4-dione], for which the IC50 on human ADAMTS-5 was determined as 316 nM; on rnADAMTS-5 (1-564-6H) it was 331 nM; on human MMP13, 1480 nM; on human TACE, 2500 nM.

As for `O=C1NC(=O)C(CCC(=O)N2CCN(c3ccc(Cl)c(F)c3)CC2)(c2ccccc2)N1` (stereo not shown) [compound 10, 5-[3-[4-(4-chloro-3-fluoro-phenyl)piperazin-1-yl]-3-oxo-propyl]-5-phenyl-imidazolidine-2,4-dione], the IC50 is 56 nM at human ADAMTS-5, 41 nM at rnADAMTS-5 (1-564-6H), 285 nM at human MMP13 and over 2790 nM at human TACE.

Regarding `Cc1cccc(N2CCN(C(=O)CCC3(C)NC(=O)NC3=O)CC2)c1C` (stereo not shown) [compound 11, 5-[3-[4-(2,3-dimethylphenyl)piperazin-1-yl]-3-oxo-propyl]-5-methyl-imidazolidine-2,4-dione], the 50% inhibitory concentration (IC50) on human ADAMTS-5 was 988 nM; at rnADAMTS-5 (1-564-6H) it was 1170 nM; on human MMP13, over 20000 nM; on human TACE, over 20000 nM.

In the case of `Cc1cc(Cl)ccc1N1CCN(C(=O)CCC2(c3ccccc3)NC(=O)NC2=O)CC1` (stereo not shown) [compound 13, 5-[3-[4-(4-chloro-2-methyl-phenyl)piperazin-1-yl]-3-oxo-propyl]-5-phenyl-imidazolidine-2,4-dione], the concentration for half-maximal inhibition (IC50) was 836 nM at human ADAMTS-5, 966 nM on rnADAMTS-5 (1-564-6H), over 20000 nM at human MMP13 and 1170 nM on human TACE.

Consider `O=C1NC(=O)C(CCC(=O)N2CCN(c3ccc4cnccc4c3)CC2)(c2ccccc2)N1` (stereo not shown) [compound 14, 5-[3-[4-(6-isoquinolyl)piperazin-1-yl]-3-oxo-propyl]-5-phenyl-imidazolidine-2,4-dione], for which the IC50 on human ADAMTS-5 is 897 nM; on rnADAMTS-5 (1-564-6H), 784 nM; on human MMP13 it was 366 nM; at human TACE, over 4000 nM.

Regarding `Cc1ccc(Cl)cc1N1CCN(C(=O)CCC2(C)NC(=O)NC2=O)CC1` (stereo not shown) [compound 16, 5-[3-[4-(5-chloro-2-methyl-phenyl)piperazin-1-yl]-3-oxo-propyl]-5-methyl-imidazolidine-2,4-dione], the IC50 on human ADAMTS-5 is 301 nM; at rnADAMTS-5 (1-564-6H), 329 nM; at human MMP13, over 20000 nM; on human TACE, 457 nM.

As to `Cc1c(Cl)cccc1N1CCN(C(=O)CCC2(C)NC(=O)NC2=O)CC1` (stereo not shown) [compound 18, 5-[3-[4-(3-chloro-2-methyl-phenyl)piperazin-1-yl]-3-oxo-propyl]-5-methyl-imidazolidine-2,4-dione], the half-maximal inhibitory concentration (IC50) on human ADAMTS-5 is 675 nM; at rnADAMTS-5 (1-564-6H) it was 930 nM; at human MMP13, over 20000 nM; at human TACE, over 4000 nM.
